What is called IC50 is the concentration that inhibits the measured activity by half.

Assay [1] has as its target T1, NEP (Rattus norvegicus, UniProt P07861).
T1 construct: Membranes from kidney cortex were prepared; from tissue; host or cells: kidney cortex membranes of male Sprague-Dawley rats
T1 sequence (P07861 1-750): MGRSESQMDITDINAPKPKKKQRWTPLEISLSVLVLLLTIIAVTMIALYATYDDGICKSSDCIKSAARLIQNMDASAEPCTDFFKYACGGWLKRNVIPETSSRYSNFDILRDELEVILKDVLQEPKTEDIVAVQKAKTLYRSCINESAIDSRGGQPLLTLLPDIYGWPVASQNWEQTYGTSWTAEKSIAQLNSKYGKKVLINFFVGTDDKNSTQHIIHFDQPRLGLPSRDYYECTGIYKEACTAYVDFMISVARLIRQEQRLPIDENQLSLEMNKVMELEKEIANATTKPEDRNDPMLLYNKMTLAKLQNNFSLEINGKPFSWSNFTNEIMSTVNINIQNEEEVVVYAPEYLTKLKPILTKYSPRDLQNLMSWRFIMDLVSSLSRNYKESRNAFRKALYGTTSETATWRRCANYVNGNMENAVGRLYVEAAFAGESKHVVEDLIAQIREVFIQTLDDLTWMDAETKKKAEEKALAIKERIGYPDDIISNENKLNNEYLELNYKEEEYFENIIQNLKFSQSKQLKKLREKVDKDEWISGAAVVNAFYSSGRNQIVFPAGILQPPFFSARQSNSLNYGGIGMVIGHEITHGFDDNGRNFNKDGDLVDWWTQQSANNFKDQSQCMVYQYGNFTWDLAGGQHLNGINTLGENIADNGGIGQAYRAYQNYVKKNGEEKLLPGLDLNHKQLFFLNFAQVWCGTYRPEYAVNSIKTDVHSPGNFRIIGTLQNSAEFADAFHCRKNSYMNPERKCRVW
Briefly: NEP-inhibitory activity, in vitro (kidney cortex membranes, [3H][Leu5]-enkephaline substrate). The format is biochemical, male Sprague-Dawley rats. The following applies: rat kidney cortex membranes 5 μg/ml of proteins; [3H][Leu5]-enkephaline 15 nM; pH 7.4; 20 minutes at 30° C.; tested as lithium or sodium salts. The protocol: The NEP-inhibitory activity was evaluated according to the method reported in the literature by C. Llorens et al., in Eur. J. Pharmacol., 69, (1981), 113-116.
Membranes from kidney cortex were prepared according to the following procedure.
By working at 0°-4° C., kidneys were removed from male Sprague-Dawley rats weighing approximately 300 g.
Cortex was carefully dissected, finely minced and suspended in a homogenization buffer (10 mM sodium phosphate pH 7.4 containing 1 mM MgCl2, 30 mM NaCl, 0.02% NAN3) 1:15 weight/volume.
The tissue was then homogenized for 30 seconds using an Ultra-Turrax homogenizer.
Approximately 10 ml of homogenate were layered over 10 ml of sucrose (41% weight/volume) and centrifuged at 31200 rpm for 30 minutes at 4° C. in a fixed angle rotor.
The membranes were collected from the buffer/sucrose interface, washed twice with 50 mM TRIS/HCl buffer (pH 7.4) and resuspended into the same buffer for storage.
The membranes were stored in small aliquots at -80° C. until use. The NEP-inhibitory activity was evaluated by using the following method.
Aliquots of the membrane suspension prepared as above described (concentration 5 μg/ml of proteins) were preincubated in the presence of an aminopeptidase inhibitor (Bestatin--1 mM) for 10 minutes at 30° C.
[^3 H][Leu^5 ]-enkephaline (15 nM) and buffer TRIS/HCl pH 7.4 (50 mM) were added in order to obtain a final volume of 100 μl. Incubation (20 minutes at 30° C.) was stopped by adding HCl 0.1M (100 μl).
The formation of the metabolite [^3 H]Tyr-Gly-Gly was quantified by chromatography on polystyrene columns (Porapak Q). The percentage of inhibition of the metabolite formation in the membrane preparations treated with the compounds of formula I, in comparison to the untreated membrane preparations, was expressed as IC50 value (nM).
(§1) The compounds of formula I were tested in the form of lithium or sodium salts.

Assay [2] deals with T2, ACE (Oryctolagus cuniculus, UniProt P12822).
T2 construct: purchased SIGMA; host or cells: rabbit lung (purified)
T2 sequence (P12822 34-1310): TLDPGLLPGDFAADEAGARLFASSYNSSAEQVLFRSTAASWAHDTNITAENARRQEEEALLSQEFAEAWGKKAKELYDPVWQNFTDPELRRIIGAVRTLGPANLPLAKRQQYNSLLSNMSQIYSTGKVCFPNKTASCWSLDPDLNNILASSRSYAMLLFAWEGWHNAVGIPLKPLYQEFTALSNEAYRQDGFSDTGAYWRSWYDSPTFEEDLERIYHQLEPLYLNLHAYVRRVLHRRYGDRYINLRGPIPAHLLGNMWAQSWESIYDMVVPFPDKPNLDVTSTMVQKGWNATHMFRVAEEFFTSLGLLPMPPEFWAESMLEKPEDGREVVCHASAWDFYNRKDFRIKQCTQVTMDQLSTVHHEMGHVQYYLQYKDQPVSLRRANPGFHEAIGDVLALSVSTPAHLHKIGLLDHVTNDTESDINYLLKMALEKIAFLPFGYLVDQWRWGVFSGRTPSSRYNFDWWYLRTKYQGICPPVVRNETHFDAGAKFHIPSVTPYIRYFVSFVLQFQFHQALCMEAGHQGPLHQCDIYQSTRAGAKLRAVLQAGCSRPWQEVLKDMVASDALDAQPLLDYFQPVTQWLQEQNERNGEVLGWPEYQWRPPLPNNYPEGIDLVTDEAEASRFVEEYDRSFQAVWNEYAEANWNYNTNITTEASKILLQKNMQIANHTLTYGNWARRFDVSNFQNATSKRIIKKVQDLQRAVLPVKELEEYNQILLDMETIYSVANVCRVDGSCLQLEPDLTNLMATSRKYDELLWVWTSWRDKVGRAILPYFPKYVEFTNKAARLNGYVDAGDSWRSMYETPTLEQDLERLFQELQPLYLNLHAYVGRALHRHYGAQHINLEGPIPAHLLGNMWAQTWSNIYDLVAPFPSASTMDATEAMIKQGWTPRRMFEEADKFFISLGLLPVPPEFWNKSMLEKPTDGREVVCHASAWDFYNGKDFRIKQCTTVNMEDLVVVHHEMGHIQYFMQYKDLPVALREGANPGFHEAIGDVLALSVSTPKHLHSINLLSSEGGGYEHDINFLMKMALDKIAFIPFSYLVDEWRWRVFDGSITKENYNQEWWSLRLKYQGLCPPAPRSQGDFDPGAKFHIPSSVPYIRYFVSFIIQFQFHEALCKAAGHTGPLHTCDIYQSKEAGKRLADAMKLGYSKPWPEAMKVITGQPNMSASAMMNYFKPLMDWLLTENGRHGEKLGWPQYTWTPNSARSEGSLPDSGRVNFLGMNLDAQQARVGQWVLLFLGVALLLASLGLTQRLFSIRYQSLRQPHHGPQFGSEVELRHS
Briefly: ACE-inhibitory activity, in vitro (FAPGG substrate). In kind it is biochemical. The following applies: ACE purified from lung rabbit; FAPGG 0.8 mM; 37° C.; 340 nm, 5 minutes; tested as lithium or sodium salts. The protocol:
The ACE-inhibitory activity was evaluated according to the method reported in the literature by B. Holmquist et al., in Analytical Biochemistry 95, 540-548 (1979).
[…] of ACE (250 mU/ml purified by lung rabbit, EC 3.4.15.1 SIGMA) with 50 μl of the compound of formula I were preincubated in thermostated cuvettes at 37° C.
The reaction was started by adding furylacryloylphenylalanylglycylglycine 0.8 mM (FAPGG-SIGMA).
Contemporaneously, by using a Beckman DU-50 spectrophotometer provided with a program for calculating delta A/minutes and regression coefficients of the enzyme kinetics curves, the absorbance at 340 nm was recorded in continuo for 5 minutes.
The percentage of the enzyme inhibition in the preparations treated with the compounds of formula I with respect to the untreated preparations was expressed as IC50 value (nM).
as §1

The subject of assay [3] is thermolysin. The following applies: J. Am. Chem. Soc. 1991, 113, 297-307; cited from earlier work.

Molecules are shown by their SMILES. Structures can show the parent of a compound that is named as a salt.

`CC(C)CC(CP(=O)(O)CCCc1ccccc1)C(=O)N[C@@H](Cc1ccc(-c2ccccc2)cc1)C(=O)O` (stereo partly drawn) [Compound 1, N-[3-[(3-phenylpropyl)(hydroxy)phosphinyl]-2-isobutyl-propionyl]-(1,1'-biphenyl-4-yl)-L-alanine dilithium salt]: the half-inhibitory concentration (IC50) in assay [1] is 368 nM; in assay [2], 70 nM.
For `CC(C)CC(CP(=O)(O)CCCCc1ccccc1)C(=O)N[C@@H](Cc1ccc(-c2ccccc2)cc1)C(=O)O` (stereo partly drawn) [Compound 2, N-[3-[(4-phenylbutyl)(hydroxy)phosphinyl]-2-isobutyl-propionyl]-(1,1'-biphenyl-4-yl)-L-alanine disodium salt] the same measures were 220 nM and 24 nM.
Turning to `CC(C)CC(CP(=O)(O)CNC(=O)OCc1ccccc1)C(=O)NC(Cc1ccccc1)C(=O)O` (stereo not drawn), the “inhibitory activity towards thermolysin (in words)” value in assay [3] is “endowed with inhibitory activity towards thermolysin”.
Turning to `CC(C)CC(CP(=O)(O)CNC(=O)c1ccccc1)C(=O)N[C@@H](Cc1ccc(-c2ccccc2)cc1)C(=O)O` (stereo partly drawn) [Compound 6, N-[3-[(benzoylaminomethyl)(hydroxy)phosphinyl]-2-isobutyl-propionyl]-(1,1'-biphenyl-4-yl)-L-alanine], the values for the IC50 in assay [1] and in assay [2] were 7.7 nM and 4.6 nM, respectively.
`CC(C)CC(CP(=O)(O)CNC(=O)Cc1ccccc1)C(=O)N[C@@H](Cc1ccc(-c2ccccc2)cc1)C(=O)O` (stereo partly drawn) [Compound 7, N-[3-[(phenylacetylaminomethyl)(hydroxy)phosphinyl]-2-isobutyl-propionyl]-(1,1'-biphenyl-4-yl)-L-alanine]: the IC50 amounted to 30.1 nM in assay [1] and 183 nM in assay [2].

Values taken from US5739123A, “Phosphinic acid derivatives with metallopeptidase inhibitory activity” (Zambon Group S.p.A., priority 1994, dated 1998).
